Results on 15 compounds are retold here after patent US6187787A, “Bis(9-aminoacridine) DNA intercalating agents having antitumor activity” (Trustees of Dartmouth College, priority 2000, dated 2001).

Where two headings read alike, the source gives them in different places. Bounds are passed on as bounds.

The test system of one assay is calf thymus DNA. The experiment in a line: Thermal denaturation studies on calf thymus DNA. It counts as binding. To be noted: increase of denaturation temperature. The protocol:
Thermal denaturation studies were performed on calf thymus DNA. Addition of the compounds of the present invention to the calf thymus DNA caused the denaturation temperature to increase approximately 11° C. (see Table 1).

The subject of assay [1] is L1210 murine leukemia cells. Description: Cytotoxicity in the murine leukemia cell line L1210 (growth inhibition, 72 hours). It counts as cell-based. To be noted: Mus musculus. As for the experimental part:
Using the methodologies disclosed by Jaycox et al. J. Heterocyclic. […] A number of intercalating agents currently in clinical use for treatment of cancer were also evaluated in this assay for comparison.
L1210 murine leukemia cells were routinely maintained as suspension cultures in McCoy's 5A medium supplemented with 10% horse serum, glutamine, penicillin, and streptomycin and grown in a humidified environment of 10% carbon dioxide and 90% air at 37° C. Compounds were dissolved in dimethyl sulfoxide (DMSO) and 40 μg was added to 4 ml of L1210 cells (10^5 cells/tube) to attain final drug concentrations of 0.01, 0.1 and 10 μg/ml of culture. After 72 hours of continuous exposure to the drug, the cell concentration was determined by a Coulter counter (Model ZBF, Hialeah, Fla.). Growth inhibition was calculated for each drug concentration using the following formula:
% growth inhibition=(1-A)×100, wherein A=[cell # treated/cell # in
The growth inhibition data were then used to calculate the ID50 value (the calculated drug concentration required to inhibit cell growth by 50% of control).

The subject of the next assay is DNA. Particulars: DNA binding characteristics of acridine dimers, Le Pecq et al. 1975; cited from earlier work.
Where [2] appears, read: L1210 murine leukemia, 72 hours of continuous exposure, concentration which inhibits growth of 50% of the cells, read-out: ID50 (the source's name).

As to `CC(C)(c1ccc(Nc2c3ccccc3nc3ccccc23)cc1)c1ccc(C(C)(C)c2ccc(Nc3c4ccccc4nc4ccccc34)cc2)cc1`, the thermal shift (ΔTm) in the assay on calf thymus DNA stood at 10.9 ± 0.31 °C. In addition, the IC50 in assay [1] (setting [2]) is above 13000 nM.
`CC(C)(c1ccc(Oc2ccc(Nc3c4ccccc4nc4ccccc34)cc2)cc1)c1ccc(Oc2ccc(Nc3c4ccccc4nc4ccccc34)cc2)cc1`: in the assay with calf thymus DNA, the ΔTm is 11.6 ± 0.4 °C. The IC50 in assay [1] (setting [2]) is 5400 nM.
For `Cc1c2ccncc2c(C)c2c1[nH]c1ccccc12` [ellipticine, reference compound], the IC50 in assay [1] (setting [2]) was found to be 530 nM.
Turning to `c1ccc2c(N[C@H]3CC[C@@H](C[C@H]4CC[C@H](Nc5c6ccccc6nc6ccccc56)CC4)CC3)c3ccccc3nc2c1`, in assay [1] (setting [2]), the IC50 was 560 nM.
As for `c1ccc2c(N[C@H]3CC[C@H](C[C@H]4CC[C@H](Nc5c6ccccc6nc6ccccc56)CC4)CC3)c3ccccc3nc2c1`, in assay [1] (setting [2]), the IC50 was found to be 500 nM.
With `CC[n+]1c(-c2ccccc2)c2cc(N)ccc2c2ccc(N)cc21` [ethidium bromide, reference compound], the IC50 in assay [1] (L1210, 72 h, read-out: ID50) is 4100 nM.
Regarding `Cc1cc2cccnc2c2ncccc12` [5-methyl-1,10-phenanthroline, reference compound], the IC50 in assay [1] (setting [2]) is 2000 nM.
Regarding `COc1ccc2nc3cc(Cl)ccc3c(NCCCNCCCCNCCCNc3c4ccc(Cl)cc4nc4ccc(OC)cc34)c2c1` [IIA], in the assay on DNA, the “mode of intercalation (bis- or monofunctional)” value (“mode of intercalation” below) is “bisintercalated”.
As to `Nc1c2ccccc2nc2ccccc12` [9-aminoacridine], in assay [1] (setting [2]), the IC50 was 2300 nM.
For `c1ccc2c(N[C@H]3CC[C@@H](C[C@H]4CC[C@@H](Nc5c6ccccc6nc6ccccc56)CC4)CC3)c3ccccc3nc2c1`, in assay [1] (setting [2]), the IC50 is 440 nM.
For the compound `COc1ccc2nc3cc(Cl)ccc3c(NCCCNCCCNc3c4ccc(Cl)cc4nc4ccc(OC)cc34)c2c1` [III], the “mode of intercalation” value with DNA was “only one of the two rings of the dimer with the shortest chain (III) of 9 angstroms was intercalated”.
For the compound `c1ccc2c(NC3CCC(CC4CCC(Nc5c6ccccc6nc6ccccc56)CC4)CC3)c3ccccc3nc2c1` (centres unmarked), the ΔTm in the assay with calf thymus DNA is 25.9 ± 4.1 °C.
For the compound `Cn1cc(NC(=O)c2cc(NC(=O)c3cc(NC=O)cn3C)cn2C)cc1C(=O)NCCC(=N)N` [distamycin-A, reference compound], in assay [1] (L1210, 72 h, read-out: ID50), the IC50 is 6000 nM.
As for `c1cc(Nc2c3ccccc3nc3ccccc23)cc(Oc2cccc(Oc3cccc(Nc4c5ccccc5nc5ccccc45)c3)c2)c1`, the IC50 in assay [1] (setting [2]) stood at 5900 nM.
For the compound `COc1ccc2nc3cc(Cl)ccc3c(NCCCCNCCCNc3c4ccc(Cl)cc4nc4ccc(OC)cc34)c2c1` [IIB], the “mode of intercalation” value in the assay with DNA is given as “bisintercalated”.
